Here are results for 33 molecules from patent publication US9206186B2, “2-phenoxy- and 2-phenylsulfonamide derivatives with CCR3 antagonistic activity for the treatment of inflammatory or immunological disorders” (AXIKIN PHARMACEUTICALS, INC., priority 2003, dated 2015).

The IC50 is the concentration that gives 50% inhibition.

Where a name gives a salt, the structure may show the parent alone.

In the assay the target is T1, Human CCR3 (Homo sapiens, UniProt P51677).
T1 construct: The cloned CCR3 cDNA was constructed with pcDNA3 vector and transfected into a K562 cell line; expressed in transfected cells
T1 sequence (P51677 1-355): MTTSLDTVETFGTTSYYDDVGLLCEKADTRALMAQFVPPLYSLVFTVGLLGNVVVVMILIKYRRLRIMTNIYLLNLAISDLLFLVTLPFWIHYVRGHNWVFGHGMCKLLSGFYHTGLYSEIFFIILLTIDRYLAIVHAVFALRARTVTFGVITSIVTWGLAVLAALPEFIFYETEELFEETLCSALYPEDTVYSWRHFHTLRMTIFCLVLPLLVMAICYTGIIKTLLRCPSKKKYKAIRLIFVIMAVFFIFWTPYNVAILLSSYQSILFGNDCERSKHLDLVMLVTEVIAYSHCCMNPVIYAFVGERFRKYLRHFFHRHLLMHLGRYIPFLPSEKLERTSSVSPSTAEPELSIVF
In words: Calcium mobilization assay (Ca2+), eotaxin-stimulated human CCR3-transformed K562 cells. In kind it is cell-based. Particulars: compounds of about 40 to 90% purity, read-out: Activity grade IC50. The protocol:
• Human CCR3-transformed K562 cells were used. The cloned CCR3 cDNA was constructed with pcDNA3 vector and transfected into a K562 cell line. The human CCR3-transformed K562 cells were maintained in RPMI-1640 (Cat.#22400-089, Life Technologies) supplemented with 10% FCS (Cat.#A-1115-L, Hyclone), 55 μM 2-mercaptoethanol (Cat.#21985-023, Life Technologies), 1 mM sodium pyruvate (Cat.#11360-070, Life Technologies), 100 units/ml of penicillin G and 100 μg/ml of streptomycin (Cat.#15140-122, Life Technologies), and 0.4 mg/ml of Geneticin (Cat.#10131-035, Life Technologies) (hereinafter called “culture medium”). Before the receptor binding assay, cells were pretreated with 5 mM sodium butyrate (Cat.#193-01522, Wako)-containing the culture medium (2×10^5 cells/ml) for 20-24 hours to increase the expression of CCR3. (2) Receptor Binding Assay • Butyrate-pretreated cells, suspended in binding buffer (25 mM HEPES pH 7.6, 1 mM CaCl2, 5 mM MgCl2, 0.5% BSA, 0.1% NaN3) at a cell density of 2×10^6 cells/ml, were added into 60 μl/well in the 96-well round bottom polypropylene plate (Cat.#3365, Costar). Compounds, diluted with the binding buffer (4-times higher concentration of the final concentration), were added into 30 μl/well in the polypropylene plate. [^125I]-labeled human eotaxin (Cat.#IM290, Amersham Pharmacia Biotech), diluted with the binding buffer at the concentration of 0.4 nM (final concentration; 0.1 nM), was added into 30 μl/well in the polypropylene plate. Total 120 μl/well of binding reaction mixture (60 μl/well of cell suspension, 30 μl/well of compound solution, and 30 μl/well of [^125I]-labeled eotaxin) were incubated in the polypropylene plate for 1 hour at room temperature after the incubation, 100 μl/well of the reaction mixture was transferred to a filtration plate (Cat.#MAFB-N0B, Millipore), and washed with the washing buffer (25 mM HEPES pH 7.6, 1 mM CaCl2, 5 mM MgCl2, 0.5% BSA, 0.1% NaN3, 0.5 M NaCl) twice. The 96-well filtration plate was pretreated with 100 μl/well of 0.5% polyethylenimine (Cat.#P-3143, Sigma) for 2-4 hours at room temperature and washed with the washing buffer twice before use. The non-specific binding was determined by parallel incubation in the presence of 500 nM of non-labeled eotaxin (Cat.#23209, Genzyme Techne). The radioactivities remained on the filter were measured by liquid scintillation counter (TopCount™, Packard) after an addition of 45 μl/well of scintillant (Microscint20, Cat.#6013621, Packard). The inhibition percent at each concentration of compound was calculated, and IC50 values were determined from the inhibition curve. [Determination of IC50 Values of Compounds in Calcium Mobilization Assay] (1) Cell • Human CCR3-transformed K562 cells were used. The human CCR3-transformed K562 cells were maintained in RPMI-1640 supplemented with 10% FCS, 55 μM 2-mercaptoethanol (Cat.#21985-023, Life Technologies), 1 mM sodium pyruvate, 100 units/ml of penicillin G and 100 μg/ml of streptomycin, and 0.4 mg/ml of Geneticin. Before the calcium mobilization assay, cells were pretreated with 5 mM sodium butyrate-containing the culture medium (2×10^5 cells/ml) for 20-24 hours to increase the expression of CCR3. (2) Calcium Mobilization Assay • Butyrate-pretreated cells were loaded with Fluo-3AM (Cat.#F-1242, Molecular Probes) in loading buffer (Hanks' solution Cat.#05906 Nissui, 20 mM HEPES pH 7.6, 0.1% BSA, 1 mM probenecid Cat.#P-8761 Sigma, 1 μM Fluo-3AM, 0.01% pluronic F-127 Cat.#P-6866 Molecular Probes) at a cell density of 1×10^7 cells/ml. Then, cells were washed with calcium assay buffer (Hanks' solution Cat.#05906 Nissui, 20 mM HEPES pH 7.6, 0.1% BSA, 1 mM Probenecid Cat.#P-8761 Sigma). The cell suspension (3.3×10^6 cells/ml) was added into 60 μl/well in the 96-well clear bottom black plate (Cat.#3904, Costar). Compounds, diluted (5-times concentration of the final concentration) with the calcium assay buffer, were added into 20 μl/well in the plate 10 minutes before assay. […]
(A change in cytosolic calcium serves as a functional read-out for many receptors and channels.)
In the case of `N#Cc1ccc(Oc2cc(Cl)cc(Cl)c2)c(S(=O)(=O)N[C@H]2CN3CCC2CC3)c1` [Example 1-1, N—(R)-(+)-(1-aza-bicyclo[2.2.2]oct-3-yl)-5-cyano-2-(3,5-dichloro-phenoxy)-benzenesulfonamide], the IC50 was less than 100 nM.

With `CN(C)CCN(CCN1C(=O)CCC1=O)S(=O)(=O)c1cc(C#N)ccc1Oc1cc(Cl)cc(Cl)c1` [Example 1-2, 5-cyano-2-(3,5-dichloro-phenoxy)-N-(2-dimethylamino-ethyl)-N-[2-(2,5-dioxo-pyrrolidin-1-yl)-ethyl]-benzenesulfonamide], the IC50 was less than 100 nM. To `N#Cc1ccc(Oc2cc(Cl)cc(Cl)c2)c(S(=O)(=O)N2CCN[C@@H](Cc3c[nH]c4ccccc34)C2)c1` [Example 1-3, 4-(3,5-dichloro-phenoxy)-3-[(3S)-(1H-indol-3-ylmethyl)-piperazine-1-sulfonyl]-benzonitrile] belongs less than 100 nM.

With `N#Cc1ccc(Oc2cc(Cl)cc(Cl)c2)c(S(=O)(=O)N2CCNCC2Cn2cncn2)c1` (stereo not drawn) [Example 1-4, 4-(3,5-dichlorophenoxy)-3-{[2-(1H-1,2,4-triazol-1-ylmethyl)-1-piperazinyl]sulfonyl}benzonitrile hydrochloride], the IC50 is less than 100 nM.

For the molecule `N#Cc1ccc(Oc2cc(Cl)cc(Cl)c2)c(S(=O)(=O)N2CCCCC2)c1` [Example 1-5], the IC50 is more than 500 nM. To `N#Cc1ccc(Oc2cc(Cl)cc(Cl)c2)c(S(=O)(=O)N2CC3CCN(Cc4ccccc4)C3C2)c1` (stereo not drawn) [Example 1-6] belongs less than 100 nM; to `CS(=O)(=O)NCC1CN(S(=O)(=O)c2cc(C#N)ccc2Oc2cc(Cl)cc(Cl)c2)CCN1` (stereo not drawn) [Example 1-7], less than 100 nM; to `CC(=O)NCC1CN(S(=O)(=O)c2cc(C#N)ccc2Oc2cc(Cl)cc(Cl)c2)CCN1` (stereo not drawn) [Example 1-8], less than 100 nM. To `CS(=O)(=O)NCC1CNCCN1S(=O)(=O)c1cc(C#N)ccc1Oc1cc(Cl)cc(Cl)c1` (stereo not drawn) [Example 1-9] belongs less than 100 nM; to `CC(=O)NCC1CNCCN1S(=O)(=O)c1cc(C#N)ccc1Oc1cc(Cl)cc(Cl)c1` (stereo not drawn) [Example 1-10], less than 100 nM. To `N#Cc1ccc(Oc2cc(Cl)cc(Cl)c2)c(S(=O)(=O)N2CCC(N3C[C@H](O)[C@@H](O)C3)CC2)c1` [Example 1-11] belongs less than 100 nM; to `COC(=O)C1CN(S(=O)(=O)c2cc(C#N)ccc2Oc2cc(Cl)cc(Cl)c2)CCCN1` (stereo not drawn) [Example 1-12], 100 to 500 nM; to `COC(=O)[C@@H]1C[C@H](N2CCCC2)CN1S(=O)(=O)c1cc(C#N)ccc1Oc1cc(Cl)cc(Cl)c1` [Example 1-13], less than 100 nM.

Consider `N#Cc1ccc(Oc2cc(Cl)cc(Cl)c2)c(S(=O)(=O)N2CC[C@H](NCCO)C2)c1` [Example 1-16], for which the IC50 was less than 100 nM.

As to `COC(=O)C1CNCCCN1S(=O)(=O)c1cc(C#N)ccc1Oc1cc(Cl)cc(Cl)c1` (stereo not drawn) [Example 1-22], the IC50 was less than 100 nM.

In the case of `N#Cc1ccc(Oc2cc(Cl)cc(Cl)c2)c(S(=O)(=O)N2CCNC[C@@H]2Cc2c[nH]c3ccccc23)c1` [Example 1-26], the IC50 was less than 100 nM. With `N#Cc1ccc(Oc2cc(Cl)cc(Cl)c2)c(S(=O)(=O)N2CCNCC2CN2C(=O)CCC2=O)c1` (stereo not drawn) [Example 1-27], the IC50 is less than 100 nM. The value for `CS(=O)(=O)NCC1CN(S(=O)(=O)c2cc(C#N)ccc2Oc2cc(Cl)cc(Cl)c2)CCCN1` (stereo not drawn) [Example 1-28] was less than 100 nM; that for `CS(=O)(=O)NCC1CNCCCN1S(=O)(=O)c1cc(C#N)ccc1Oc1cc(Cl)cc(Cl)c1.Cl` (stereo not drawn) [Example 1-29] was less than 100 nM; that for `CC(=O)c1ccc(Oc2cc(Cl)cc(Cl)c2)c(S(=O)(=O)N2CCNCC2)c1` [Example 1-31] was less than 100 nM.

On to `N#Cc1ccc(Oc2cc(Cl)cc(Cl)c2)c(S(=O)(=O)N[C@@H]2CN3CCC2CC3)c1` [Example 1-32], for which the IC50 is less than 100 nM. The value for `N#Cc1ccc(Oc2cc(Cl)cc(Cl)c2)c(S(=O)(=O)N2CCC(N3CCC[C@H]3C(=O)O)CC2)c1` [Example 1-33] was 100 to 500 nM; that for `CC(C)(O)[C@@H]1CCCN1C1CCN(S(=O)(=O)c2cc(C#N)ccc2Oc2cc(Cl)cc(Cl)c2)CC1` [Example 1-34] was less than 100 nM.

For `N#Cc1ccc(Oc2cc(Cl)cc(Cl)c2)c(S(=O)(=O)N2CCCCC2CN2CCC(O)C2)c1` (stereo not drawn) [Example 1-35], the IC50 was less than 100 nM. The value for `N#Cc1ccc(Oc2cc(Cl)cc(Cl)c2)c(S(=O)(=O)N2CCNC(Cn3ncnn3)C2)c1` (stereo not drawn) [Example 1-36] was less than 100 nM; that for `Cl.N#Cc1ccc(Oc2cc(Cl)cc(Cl)c2)c(S(=O)(=O)N2CCNC(Cn3cncn3)C2)c1` (stereo not drawn) [Example 1-37] was less than 100 nM.

In the case of `CCN1CCCN(S(=O)(=O)c2cc(C#N)ccc2Oc2cc(Cl)cc(Cl)c2)C(C(=O)OC)C1` (stereo not drawn) [Example 1-39], the half-inhibitory concentration (IC50) was less than 100 nM. To `N#Cc1ccc(Oc2cc(Cl)cc(Cl)c2)c(S(=O)(=O)N(CCN2CCCC2)C2CCCC2)c1` [Example 1-42] belongs less than 100 nM. The value for `N#Cc1ccc(Oc2cc(Cl)cc(Cl)c2)c(S(=O)(=O)N2CCNC(CN3C(=O)CCC3=O)C2)c1` (stereo not drawn) [Example 1-43] was less than 100 nM; that for `N#Cc1ccc(Oc2cc(Cl)cc(Cl)c2)c(S(=O)(=O)N2CCC(N3CCCC3)C(CN3C(=O)CCC3=O)C2)c1` (stereo not drawn) [Example 1-44] was less than 100 nM.

Take `N#Cc1ccc(Oc2cc(Cl)cc(Cl)c2)c(S(=O)(=O)N2CCC(N3CCC[C@H]3CO)CC2)c1` [Example 1-45]: the half-maximal inhibitory concentration (IC50) is less than 100 nM. The value for `N#Cc1ccc(Oc2cc(Cl)cc(Cl)c2)c(S(=O)(=O)N2CCC[C@H]2CN2CCC[C@H]2CO)c1` [Example 1-46] was less than 100 nM; that for `N#Cc1ccc(Oc2cc(Cl)cc(Cl)c2)c(S(=O)(=O)C2CCNCC2)c1` [Example 2-1, 4-(3,5-Dichloro-phenoxy)-3-(piperidine-4-sulfonyl)-benzonitrile] was more than 500 nM.
